Holding throughout (assay): HPLC product quantification, Eadie-Hofstee plot
Holding throughout (type): biochemical, Scutellaria baicalensis
Common to all, as to settings: UDP-Glc as donor; 100 mM Tris-HCl pH 7.0, 37 °C, 10 min; baicalein 0.5-200 μM

One test relates to T1, SbUGT1.
T1 construct: full-length ORF (de novo synthesized) in pYesdest17, E. coli Rosetta (DE3), Ni-NTA purified
The text has this:
HPLC product quantification, Eadie-Hofstee plot on SbUGT1

The subject of the next test is T2, SbUGT2.
T2 construct: full-length ORF (RT-PCR) in pYesdest17, E. coli Rosetta (DE3), Ni-NTA purified
The text has this:
HPLC product quantification, Eadie-Hofstee plot on SbUGT2

The next test concerns T3, SbUGT3.
T3 construct: full-length ORF (RT-PCR) in pYesdest17, E. coli Rosetta (DE3), Ni-NTA purified
The source says:
HPLC product quantification, Eadie-Hofstee plot on SbUGT3

Turning to `O=c1cc(-c2ccccc2)oc2cc(O)c(O)c(O)c12` [baicalein], the Michaelis constant (Km) with SbUGT1 was 3.14 µM; with SbUGT2, 101 µM; in the test with SbUGT3, 2.67 µM.

In general, Km refers to the concentration of substrate that gives half-maximal velocity.

These data come from paper PMC8888134, “Characterization of UDP-glycosyltransferase family members reveals how major flavonoid glycoside accumulates in the roots of Scutellaria baicalensis” (BMC Genomics, 2022).
